Test results as given in US20190365742A1, “AZOLE TREATMENT REGIMEN WITH REDUCED HEPATOTOXICITY” (HEDGEPATH PHARMACEUTICALS, INC., priority 2018, published 2019).

Test: plasma concentration of itraconazole required for clinical benefit in humans with cancer
Type: in vivo
Settings: human, after 4 weeks of therapy, read-out: minimum plasma trough level required to have a clinically significant effect
Procedure: Optionally, the treatment method further comprises measuring the plasma level of the HhP inhibitor, or a metabolite thereof, in the subject one or more times. In some embodiments, the measuring is carried out one or more times about 4 weeks after initiation of treatment with the HhP inhibitor. Observations concerning the desirability of achieving a plasma trough level of at least about 1,000 ng/mL of the HhP inhibitor are described in U.S. Pat. No. 9,192,609 (“Treatment and Prognostic Monitoring of Proliferation Disorders Using Hedgehog Pathway Inhibitors”; Virca and O'Donnell), which is incorporated herein by reference in its entirety.
In particular, the minimum plasma trough level after 4 weeks of therapy required to have a clinically significant effect was at least 1000 ng/ml. […] Nevertheless, there can be side-effects peculiar to such high doses such as hypertension, peripheral edema, and hypokalemia, which seem to be a result of an increased production of mineralocorticoid. These side effects associated with these high doses of itraconazole can be effectively managed by giving a selective mineralocorticoid antagonist, such as eplerenone. Accordingly, in some embodiments, the method further comprises administering eplerenone or other mineralocorticoid inhibitor. […]

concentration at 4 weeks: ≥ 1000 ng/mL
SMILES: CCC(C)n1ncn(-c2ccc(N3CCN(c4ccc(OCC5COC(Cn6cncn6)(c6ccc(Cl)cc6Cl)O5)cc4)CC3)cc2)c1=O (stereo not shown) [itraconazole]
